Measured values published in the SangsterLogP compilation.

Experiment: method code SF-GLC, from DOI: 10.1016/0048-3575(78)90090-1

| SMILES | logP |
| --- | --- |
| COC1C(Cl)C(Cl)C(Cl)C(OC)C1OC (stereo not given) | 1.87 |
| ClC1C(Cl)C(Br)C(Cl)C(Cl)C1Br (stereo not given) | 3.98 |
| ClC1CC(Cl)C(Cl)C(Cl)C1Cl (stereo not given) | 3.53 |
| COC1C(Cl)C(Cl)C(OC)C(Cl)C1Cl (stereo not given) | 3.15 |
| CC1C(Cl)C(Cl)C(Cl)C(Cl)C1Cl (stereo not given) | 4.04 |
| FC1C(Cl)C(Cl)C(Cl)C(Cl)C1Br (stereo not given) | 3.28 |
| ClC1CC(Cl)C(Cl)CC1Cl (stereo not given) | 2.82 |
| CC1C(Cl)C(Cl)C(C)C(Cl)C1Cl (stereo not given) | 4.4 |
| OCC1C(Cl)C(Cl)C(Cl)C(Cl)C1Cl (stereo not given) | 2.94 |
| FC1C(Cl)C(Cl)C(Cl)C(Cl)C1Cl (stereo not given) | 3.19 |
| CCOC1C(Cl)C(Cl)C(Cl)C(Cl)C1Cl (stereo not given) | 3.69 |
| CC(=O)Oc1c(Cl)c(Cl)c(Cl)c(Cl)c1Cl | 3.4 |
| ClC1C(Cl)C(Cl)C(I)C(Cl)C1Cl (stereo not given) | 3.96 |
| FC(F)(F)COC1C(Cl)C(Cl)C(Cl)C(Cl)C1Cl (stereo not given) | 4.06 |
| ClC1C(Cl)C(Cl)C(Br)C(Br)C1Cl (stereo not given) | 3.88 |
| COC1C(Cl)C(Cl)C(Cl)C(Cl)C1OC (stereo not given) | 2.55 |
| COC1CC(Cl)C(Cl)C(Cl)C1Cl (stereo not given) | 2.99 |
| ClC1C(Cl)C(Cl)C(Br)C(Cl)C1Cl (stereo not given) | 3.74 |
| COC1C(Cl)C(Cl)C(Cl)C(Cl)C1Cl (stereo not given) | 3.14 |
| OC1C(Cl)C(Cl)C(Cl)C(Cl)C1Cl (stereo not given) | 2.54 |
